biological target: recombinant Human Phosphodiesterase B2 (PDE4B2) (Homo sapiens, UniProt Q07343); test: Human Phosphodiesterase B2 Radiometric Assay (yttrium silicate SPA beads, [3H]cyclic AMP); format: biochemical; settings: recombinant human PDE4B2, radiometric SPA assay, 8 nM [3H]cyclic AMP
How it was run: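 Read-out is scintillation proximity: yttrium silicate beads (with 18 mM ZnSO4, added to stop the reaction) bind 5′AMP formed from 8 nM [3H]cAMP over 20 min. Beforehand, compound and 0.1 mg/mL enzyme were preincubated 30 min at 30 °C in pH 7.5 HEPES buffer with MgCl2, EGTA and Brij 35; pIC50 values were curve-fitted.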

recombinant Human Phosphodiesterase B2 (PDE4B2), sequence (Q07343 1-564 isoform Q07343-2): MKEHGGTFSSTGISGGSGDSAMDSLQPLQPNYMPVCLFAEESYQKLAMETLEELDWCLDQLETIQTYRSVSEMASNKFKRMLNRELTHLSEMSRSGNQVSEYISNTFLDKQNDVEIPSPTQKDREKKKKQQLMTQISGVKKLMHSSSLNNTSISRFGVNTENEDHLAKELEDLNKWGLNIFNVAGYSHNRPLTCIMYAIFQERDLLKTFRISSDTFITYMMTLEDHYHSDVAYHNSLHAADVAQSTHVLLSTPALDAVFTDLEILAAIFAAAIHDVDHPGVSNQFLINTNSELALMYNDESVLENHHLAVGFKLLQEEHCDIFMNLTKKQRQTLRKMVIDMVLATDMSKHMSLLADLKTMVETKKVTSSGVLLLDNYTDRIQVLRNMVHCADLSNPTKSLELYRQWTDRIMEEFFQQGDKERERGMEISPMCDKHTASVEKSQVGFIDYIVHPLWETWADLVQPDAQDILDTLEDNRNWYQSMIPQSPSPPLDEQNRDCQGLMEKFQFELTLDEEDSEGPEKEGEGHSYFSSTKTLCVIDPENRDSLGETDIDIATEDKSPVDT

PDE4B2 pIC50	SMILES
9.8	CN(C)C1(C(=O)NC2CCC(n3c(=O)c4cc(F)cnc4n(-c4cccc(-c5ccc(CN6CCC(CO)CC6)cc5)c4)c3=O)CC2)CC1 (stereo not drawn) [Example 128, 1-(dimethylamino)-N-{4-[6-fluoro-1-(4′-{[4-(hydroxymethyl)piperidin-1-yl]methyl}biphenyl-3-yl)-2,4-dioxo-1,4-dihydropyrido[2,3-d]pyrimidin-3(2H)-yl]cyclohexyl}cyclopropane-carboxamide]

same assay, conditions: recombinant human PDE4B2, radiometric SPA assay, 8 nM [3H]cyclic AMP; read-out: PDE4B2 pIC50 (converted)

SMILES	IC50 [nM]
CC(=O)N[C@H]1CC[C@@H](n2c(=O)c3cc(F)cnc3n(-c3cccc(-c4ccc(CN5CCN(C(C)C)CC5)cc4)c3)c2=O)CC1 [Example 232, N-{cis-4-[6-Fluoro-1-{4′-[(4-isopropylpiperazin-1-yl)methyl]biphenyl-3-yl}-2,4-dioxo-1,4-dihydropyrido[2,3-d]pyrimidin-3(2H)-yl]cyclohexyl}acetamide]	0.251
CC(C)N1CCN(Cc2ccc(-c3cccc(-n4c(=O)n([C@H]5CC[C@@H](NC(=O)CN6CCCCC6)CC5)c(=O)c5cc(F)cnc54)c3)cc2)CC1 [Example 237, N-{cis-4-[6-fluoro-1-{4′-[(4-isopropylpiperazin-1-yl)methyl]biphenyl-3-yl}-2,4-dioxo-1,4-di-hydropyrido[2,3-d]pyrimidin-3(2H)-yl]cyclohexyl}-2-piperidin-1-ylacetamide]	0.0398
O=c1c2cc(F)cnc2n(-c2cccc(-c3ccccc3)c2)c(=O)n1[C@H]1CC[C@@H](NCc2cn3cc(F)ccc3n2)CC1 [Example 74, 1-biphenyl-3-yl-6-fluoro-3-(cis-4-{[(6-fluoroimidazo[1,2-a]pyridin-2-yl)methyl]amino}cyclohexyl)pyrido[2,3-d]pyrimidine-2,4(1H,3H)-dione]	0.794
O=C(N[C@H]1CC[C@@H](n2c(=O)c3cc(F)cnc3n(-c3cccc(-c4ccc(CN5CCCOCC5)cc4)c3)c2=O)CC1)c1cn2c(n1)CCCC2 [Example 224, N-{cis-4-[6-fluoro-1-[4′-(1,4-oxazepan-4-ylmethyl)biphenyl-3-yl]-2,4-dioxo-1,4-dihydropyrido[2,3-d]pyrimidin-3(2H)-yl]cyclohexyl}-5,6,7,8-tetrahydroimidazo[1,2-a]pyridine-2-carboxamide]	0.01
O=C(N[C@H]1CC[C@@H](n2c(=O)c3cc(F)cnc3n(-c3cccc(C#Cc4cccnc4)c3)c2=O)CC1)c1cn2ccccc2n1 [Example 6, N-{cis-4-[6-fluoro-2,4-dioxo-1-[3-(pyridin-3-ylethynyl)phenyl]-1,4-dihydropyrido[2,3-d]pyrimidin-3(2H)-yl]cyclohexyl}imidazo[1,2-a]pyridine-2-carboxamide]	0.00794
O=c1c2cc(F)cnc2n(-c2cccc(-c3ccccc3)c2)c(=O)n1[C@H]1CC[C@@H](NCCO)CC1 [Example 86, 1-biphenyl-3-yl-6-fluoro-3-{cis-4-[(2-hydroxyethyl)amino]cyclohexyl}pyrido[2,3-d]pyrimidine-2,4(1H,3H)-dione]	31.6
Cc1cc(C(=O)N[C@H]2CC[C@@H](n3c(=O)c4cc(F)cnc4n(-c4cccc(-c5ccc(CNCCC(C)C)cc5)c4)c3=O)CC2)nn1C [Example 115, N-{cis-4-[6-fluoro-1-(4′-{[(3-methylbutyl)amino]methyl}biphenyl-3-yl)-2,4-dioxo-1,4-dihydropyrido[2,3-d]-pyrimidin-3(2H)-yl]cyclohexyl}-1,5-dimethyl-1H-pyrazole-3-carboxamide]	0.0398
COc1ccc(CN[C@H]2CC[C@@H](n3c(=O)c4cc(F)cnc4n(-c4cccc(-c5ccc(CN6CCN(C(C)C)CC6)cc5)c4)c3=O)CC2)cc1Cl [Example 260, 3-{cis-4-[(3-chloro-4-methoxybenzyl)amino]cyclohexyl}-6-fluoro-1-{4′-[(4-isopropyl-piperazin-1-yl)methyl]biphenyl-3-yl}pyrido[2,3-d]pyrimidine-2,4(1H,3H)-dione]	0.501
O=C(N[C@H]1CC[C@@H](n2c(=O)c3cc(F)cnc3n(-c3cccc(-c4ccccc4CN4CCOCC4)c3)c2=O)CC1)c1ccccc1O [Example 63, N-{cis-4-[6-fluoro-1-[2′-(morpholin-4-ylmethyl)biphenyl-3-yl]-2,4-dioxo-1,4-dihydropyrido[2,3-d]pyrimidin-3(2H)-yl]cyclohexyl}-2-hydroxybenzamide]	0.0794
CCCCN(C)Cc1ccc(-c2cccc(-n3c(=O)n([C@H]4CC[C@@H](NC(=O)c5cn6c(n5)CCCC6)CC4)c(=O)c4cc(F)cnc43)c2)cc1 [Example 132, N-{cis-4-[1-(4′-{[butyl(methyl)amino]methyl}biphenyl-3-yl)-6-fluoro-2,4-dioxo-1,4-dihydropyrido[2,3-d]pyrimidin-3(2H)-yl]cyclohexyl}-5,6,7,8-tetrahydroimidazo[1,2-a]pyridine-2-carboxamide]	0.0251
CCCN1CCN(Cc2ccc(-c3cccc(-n4c(=O)n([C@H]5CC[C@@H](NC(=O)c6cn7c(n6)CCCC7)CC5)c(=O)c5cc(F)cnc54)c3)cc2)CC1 [Example 227, N-{cis-4-[6-fluoro-2,4-dioxo-1-{4′-[(4-propylpiperazin-1-yl)methyl]biphenyl-3-yl}-1,4-dihydropyrido[2,3-d]pyrimidin-3(2H)-yl]cyclohexyl}-5,6,7,8-tetrahydroimidazo[1,2-a]pyridine-2-carboxamide]	0.00794

Continued, values first:

IC50 [nM]	SMILES
2	C[C@H](O)CN(C)Cc1cc(O)ccc1-c1cccc(-n2c(=O)n([C@H]3CC[C@@H](NCc4cn5cc(F)ccc5n4)CC3)c(=O)c3cc(F)cnc32)c1 (relative stereo) [Example 318, 6-fluoro-3-(cis-4-{[(6-fluoroimidazo[1,2-a]pyridin-2-yl)methyl]amino}cyclohexyl)-1-(4′-hydroxy-2′-{[[(2S)-2-hydroxypropyl](methyl)amino]methyl}biphenyl-3-yl)pyrido[2,3-d]pyrimidine-2,4(1H,3H)-dione]
0.0398	O=c1c2cc(F)cnc2n(-c2cccc(-c3ccc(O)cc3CN3CCOCC3)c2)c(=O)n1[C@H]1CC[C@@H](NCc2cc3ccccc3o2)CC1 [Example 279, 3-{cis-4-[(1-benzofuran-2-ylmethyl)amino]cyclohexyl}-6-fluoro-1-[4′-hydroxy-2′-(morpholin-4-ylmethyl)biphenyl-3-yl]pyrido[2,3-d]pyrimidine-2,4(1H,3H)-dione]
0.2	Cc1cnc(C(=O)N[C@H]2CC[C@@H](n3c(=O)c4cc(F)cnc4n(-c4cccc(-c5ccc(CN6C[C@@H](C)N[C@@H](C)C6)cc5)c4)c3=O)CC2)cn1 [Example 361, N-{cis-4-[1-(4′-{[(3R,5S)-3,5-dimethylpiperazin-1-yl]methyl}biphenyl-3-yl)-6-fluoro-2,4-dioxo-1,4-dihydropyrido[2,3-d]pyrimidin-3(2H)-yl]cyclohexyl}-5-methylpyrazine-2-carboxamide]
0.0126	Cc1cc(C(=O)N[C@H]2CC[C@@H](n3c(=O)c4cc(F)cnc4n(-c4cccc(-c5ccc(CN6CCC(N7CCCCC7)CC6)cc5)c4)c3=O)CC2)nn1C [Example 289, N-{cis-4-[1-[4′-(1,4′-bipiperidin-1′-ylmethyl)biphenyl-3-yl]-6-fluoro-2,4-dioxo-1,4-dihydropyrido[2,3-d]pyrimidin-3(2H)-yl]cyclohexyl}-1,5-dimethyl-1H-pyrazole-3-carboxamide]
0.251	CN(Cc1cc(O)ccc1-c1cccc(-n2c(=O)n([C@H]3CC[C@@H](NCc4cn5cc(F)ccc5n4)CC3)c(=O)c3cc(F)cnc32)c1)CC1(O)CC1 [Example 322, 6-fluoro-3-(cis-4-{[(6-fluoroimidazo[1,2-c]pyridin-2-yl)methyl]amino}cyclohexyl)-1-(4′-hydroxy-2′-{[[(1-hydroxycyclopropyl)methyl](methyl)amino]methyl}biphenyl-3-yl)pyrido[2,3-d]pyrimidine-2,4(1H,3H)-dione]
1.58	Cc1c(CN[C@H]2CC[C@@H](n3c(=O)c4cc(F)cnc4n(-c4cccc(-c5ccc(CN6CCN(C(C)C)CC6)cc5)c4)c3=O)CC2)ncn1Cc1ccccc1 [Example 263, 3-(cis-4-{[(1-benzyl-5-methyl-1H-imidazol-4-yl)methyl]amino}cyclohexyl)-6-fluoro-1-{4′-[(4-isopropylpiperazin-1-yl)methyl]biphenyl-3-yl}pyrido[2,3-d] pyrimidine-2,4(1H,3H)-dione]
0.2	C[C@@H](O)CN(C)Cc1cc(O)ccc1-c1cccc(-n2c(=O)n([C@H]3CC[C@@H](NCc4cn5cc(F)ccc5n4)CC3)c(=O)c3cc(F)cnc32)c1 [Example 320, 6-fluoro-3-(cis-4-{[(6-fluoroimidazo[1,2-c]pyridin-2-yl)methyl]amino}cyclohexyl)-1-(4′-hydroxy-2′-{[[(2R)-2-hydroxypropyl](methyl)amino]methyl}biphenyl-3-yl)pyrido[2,3-d]pyrimidine-2,4(1H,3H)-dione]
2.51	CC(C)N1CCN(Cc2ccc(-c3cccc(-n4c(=O)n([C@H]5CC[C@@H](NCc6cnn(C)c6-c6ccccc6)CC5)c(=O)c5cc(F)cnc54)c3)cc2)CC1 [Example 264, 6-fluoro-1-{4′-[(4-isopropyl-piperazin-1-yl)methyl]biphenyl-3-yl}-3-(cis-4-{[(1-methyl-5-phenyl-1H-pyrazol-4-yl)methyl]amino}cyclohexyl)pyrido[2,3-d] pyrimidine-2,4(1H,3H)-dione]
0.0158	O=C(N[C@H]1CC[C@@H](n2c(=O)c3cc(F)cnc3n(-c3cccc(-c4ccc(CN5CCCNCC5)cc4)c3)c2=O)CC1)c1cnc2ccccc2n1 [Example 352, N-{cis-4-[1-[4′-(1,4-diazepan-1-ylmethyl)biphenyl-3-yl]-6-fluoro-2,4-dioxo-1,4-dihydropyrido[2,3-d]pyrimidin-3(2H)-yl]cyclohexyl} quinoxaline-2-carboxamide]

— patent US20100204203A1, “Chemical Compounds 637: Pyridopyrimidinediones as PDE4 Inhibitors” (priority 2007, published 2010)
